Source: ChEMBL document CHEMBL1806380, “Rigidized 1-aryl sulfonyl tryptamines: synthesis and pharmacological evaluation as 5-HT6 receptor ligands” (Bioorg Med Chem Lett, 2011)
One block for each molecule: values may come before it.

Columns and labels:
[1] = target: 5-hydroxytryptamine receptor 6 (Homo sapiens) (UniProt P50406); test: Binding affinity to human recombinant 5HT6 receptor expressed in CHO cells co-expressing pCRE-Luc gene assessed as modulation of serotonin-induced intracellular cAMP level after 4 hrs by luciferase based luminescence assay; type: cell-based
Chain of 5-hydroxytryptamine receptor 6 (Homo sapiens) (P50406 whole entry): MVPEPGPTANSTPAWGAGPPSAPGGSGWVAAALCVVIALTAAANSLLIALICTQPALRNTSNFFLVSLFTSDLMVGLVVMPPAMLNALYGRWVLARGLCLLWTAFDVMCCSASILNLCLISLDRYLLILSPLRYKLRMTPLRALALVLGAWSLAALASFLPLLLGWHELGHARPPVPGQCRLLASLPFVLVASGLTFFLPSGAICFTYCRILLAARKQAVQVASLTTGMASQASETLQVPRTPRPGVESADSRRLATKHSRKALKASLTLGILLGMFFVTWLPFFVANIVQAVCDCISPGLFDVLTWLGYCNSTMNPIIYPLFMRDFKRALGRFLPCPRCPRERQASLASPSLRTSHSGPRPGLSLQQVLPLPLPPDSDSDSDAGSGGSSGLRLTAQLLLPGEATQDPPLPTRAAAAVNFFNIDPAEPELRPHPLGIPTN

[2] = target: D(2) dopamine receptor (Homo sapiens) (UniProt P14416); test: Inhibition of dopamine D2 receptor at 0.5 uM
Chain of D(2) dopamine receptor (Homo sapiens) (P14416 whole entry): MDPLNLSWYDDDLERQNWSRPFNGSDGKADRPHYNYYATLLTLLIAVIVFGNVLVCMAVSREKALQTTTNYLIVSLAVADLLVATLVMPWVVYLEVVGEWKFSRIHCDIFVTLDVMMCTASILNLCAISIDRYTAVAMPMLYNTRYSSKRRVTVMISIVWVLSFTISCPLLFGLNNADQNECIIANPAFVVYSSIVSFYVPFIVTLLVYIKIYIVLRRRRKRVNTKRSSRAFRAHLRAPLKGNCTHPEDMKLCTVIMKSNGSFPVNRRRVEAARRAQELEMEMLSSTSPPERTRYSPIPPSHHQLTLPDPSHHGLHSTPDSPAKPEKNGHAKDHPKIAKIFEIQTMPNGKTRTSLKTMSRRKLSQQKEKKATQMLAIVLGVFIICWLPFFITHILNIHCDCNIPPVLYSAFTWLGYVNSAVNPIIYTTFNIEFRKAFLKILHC

[3] = target: T1, Alpha-1B adrenergic receptor (Homo sapiens) (UniProt P35368); test: Inhibition of adrenergic alpha1b receptor at 0.5 uM
T1 sequence (whole entry): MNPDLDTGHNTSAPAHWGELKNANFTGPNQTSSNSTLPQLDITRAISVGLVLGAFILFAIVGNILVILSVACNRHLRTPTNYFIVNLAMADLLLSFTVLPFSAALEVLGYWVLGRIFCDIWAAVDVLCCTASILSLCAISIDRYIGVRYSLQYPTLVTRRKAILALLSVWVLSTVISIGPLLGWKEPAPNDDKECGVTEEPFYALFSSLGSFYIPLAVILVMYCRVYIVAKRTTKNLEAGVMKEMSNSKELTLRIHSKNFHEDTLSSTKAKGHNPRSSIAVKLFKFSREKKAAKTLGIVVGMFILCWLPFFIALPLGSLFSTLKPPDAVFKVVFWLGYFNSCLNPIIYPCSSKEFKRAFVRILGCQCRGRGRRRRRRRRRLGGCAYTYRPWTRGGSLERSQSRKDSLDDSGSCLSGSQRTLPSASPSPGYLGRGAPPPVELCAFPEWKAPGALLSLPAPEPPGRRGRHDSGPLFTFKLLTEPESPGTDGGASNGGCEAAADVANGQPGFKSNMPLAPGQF

[4] = target: Histamine H1 receptor (Homo sapiens) (UniProt P35367); test: Inhibition of histamine H1 receptor at 0.5 uM
Chain of Histamine H1 receptor (Homo sapiens) (P35367 whole entry): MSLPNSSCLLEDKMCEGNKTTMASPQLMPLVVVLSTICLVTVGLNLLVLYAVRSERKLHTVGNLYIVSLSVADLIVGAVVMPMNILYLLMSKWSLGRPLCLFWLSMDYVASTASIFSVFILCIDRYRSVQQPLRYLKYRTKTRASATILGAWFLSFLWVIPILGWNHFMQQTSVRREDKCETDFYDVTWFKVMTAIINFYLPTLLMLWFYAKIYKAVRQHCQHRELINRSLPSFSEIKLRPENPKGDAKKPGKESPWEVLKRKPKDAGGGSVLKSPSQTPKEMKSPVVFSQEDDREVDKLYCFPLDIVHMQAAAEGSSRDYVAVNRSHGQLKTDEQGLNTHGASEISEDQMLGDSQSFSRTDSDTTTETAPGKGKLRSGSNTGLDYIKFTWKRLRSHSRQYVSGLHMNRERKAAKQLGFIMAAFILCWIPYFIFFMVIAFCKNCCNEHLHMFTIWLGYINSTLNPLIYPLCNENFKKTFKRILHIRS

[5] = target: Sodium-dependent serotonin transporter (Homo sapiens) (UniProt P31645); test: Inhibition of SERT at 0.5 uM
Chain of Sodium-dependent serotonin transporter (Homo sapiens) (P31645 whole entry, looked up): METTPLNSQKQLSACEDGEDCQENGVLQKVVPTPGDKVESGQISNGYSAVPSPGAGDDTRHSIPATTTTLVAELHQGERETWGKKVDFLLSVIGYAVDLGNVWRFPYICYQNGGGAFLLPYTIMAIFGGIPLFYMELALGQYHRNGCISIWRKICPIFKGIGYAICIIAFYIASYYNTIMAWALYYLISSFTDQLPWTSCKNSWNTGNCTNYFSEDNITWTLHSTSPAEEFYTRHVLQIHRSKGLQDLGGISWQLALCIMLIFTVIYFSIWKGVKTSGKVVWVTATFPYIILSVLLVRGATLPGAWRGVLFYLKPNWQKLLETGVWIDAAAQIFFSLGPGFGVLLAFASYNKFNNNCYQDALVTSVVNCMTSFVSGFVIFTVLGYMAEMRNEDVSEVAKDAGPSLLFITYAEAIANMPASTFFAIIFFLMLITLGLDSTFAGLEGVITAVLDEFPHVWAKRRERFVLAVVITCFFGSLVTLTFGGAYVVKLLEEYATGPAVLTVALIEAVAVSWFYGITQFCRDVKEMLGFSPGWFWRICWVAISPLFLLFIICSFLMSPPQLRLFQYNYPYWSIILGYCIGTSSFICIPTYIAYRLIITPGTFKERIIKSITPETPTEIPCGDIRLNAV

[6] = target: 5-hydroxytryptamine receptor 7 (Rattus norvegicus) (UniProt P32305); test: Binding affinity to rat 5HT7 receptor expressed in CHO cells co-expressing pCRE-Luc gene assessed as modulation of serotonin-induced intracellular cAMP level at 0.5 uM after 5 hrs by luciferase based luminescence assay; type: cell-based
Chain of 5-hydroxytryptamine receptor 7 (Rattus norvegicus) (P32305 whole entry): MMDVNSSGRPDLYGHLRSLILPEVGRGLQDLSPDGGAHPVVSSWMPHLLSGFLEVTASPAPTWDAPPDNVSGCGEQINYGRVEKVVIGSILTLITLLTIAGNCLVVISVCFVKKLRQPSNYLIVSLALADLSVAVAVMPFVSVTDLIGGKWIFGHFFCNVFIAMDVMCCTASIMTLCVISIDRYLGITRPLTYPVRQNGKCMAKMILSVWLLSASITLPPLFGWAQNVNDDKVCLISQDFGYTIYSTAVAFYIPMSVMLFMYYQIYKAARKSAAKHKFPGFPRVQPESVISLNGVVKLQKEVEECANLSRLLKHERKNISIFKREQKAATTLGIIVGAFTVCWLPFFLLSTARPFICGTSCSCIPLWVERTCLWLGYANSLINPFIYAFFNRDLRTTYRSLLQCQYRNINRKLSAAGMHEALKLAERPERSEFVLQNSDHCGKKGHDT

[7] = target: Sodium-dependent noradrenaline transporter (Homo sapiens) (UniProt P23975); test: Inhibition of NET at 0.5 uM
Chain of Sodium-dependent noradrenaline transporter (Homo sapiens) (P23975 whole entry): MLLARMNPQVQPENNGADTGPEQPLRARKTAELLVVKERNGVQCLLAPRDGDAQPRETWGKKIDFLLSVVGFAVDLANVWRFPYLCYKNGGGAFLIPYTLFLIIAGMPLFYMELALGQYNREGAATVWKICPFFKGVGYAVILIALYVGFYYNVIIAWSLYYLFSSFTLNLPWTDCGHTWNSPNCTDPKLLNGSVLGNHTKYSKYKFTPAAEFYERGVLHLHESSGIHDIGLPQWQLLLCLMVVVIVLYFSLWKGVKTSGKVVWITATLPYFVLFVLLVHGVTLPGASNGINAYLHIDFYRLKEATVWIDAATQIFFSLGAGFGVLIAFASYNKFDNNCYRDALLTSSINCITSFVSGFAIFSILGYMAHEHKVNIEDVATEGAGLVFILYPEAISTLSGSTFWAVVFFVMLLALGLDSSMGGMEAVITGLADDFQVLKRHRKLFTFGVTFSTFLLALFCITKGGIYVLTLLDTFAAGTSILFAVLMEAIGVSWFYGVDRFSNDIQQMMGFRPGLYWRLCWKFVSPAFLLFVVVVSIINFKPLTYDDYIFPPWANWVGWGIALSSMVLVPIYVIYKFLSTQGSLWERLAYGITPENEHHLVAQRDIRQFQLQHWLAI

[8] = target: 5-hydroxytryptamine receptor 2A (Homo sapiens) (UniProt P28223); test: Inhibition of 5HT2A receptor at 0.5 uM
Chain of 5-hydroxytryptamine receptor 2A (Homo sapiens) (P28223 whole entry): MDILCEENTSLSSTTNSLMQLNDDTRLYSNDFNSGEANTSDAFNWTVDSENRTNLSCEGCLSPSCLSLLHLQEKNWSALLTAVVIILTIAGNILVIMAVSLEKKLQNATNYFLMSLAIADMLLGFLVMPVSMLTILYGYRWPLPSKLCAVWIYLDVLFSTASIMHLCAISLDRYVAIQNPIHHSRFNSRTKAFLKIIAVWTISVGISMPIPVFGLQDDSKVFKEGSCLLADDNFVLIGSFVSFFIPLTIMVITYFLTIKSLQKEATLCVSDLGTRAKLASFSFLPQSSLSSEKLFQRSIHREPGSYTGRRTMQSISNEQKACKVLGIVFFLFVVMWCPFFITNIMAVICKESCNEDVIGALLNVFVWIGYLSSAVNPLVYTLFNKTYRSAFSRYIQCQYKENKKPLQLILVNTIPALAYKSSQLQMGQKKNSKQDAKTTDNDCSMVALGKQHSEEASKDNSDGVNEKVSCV

[9] = target: 5-hydroxytryptamine receptor 4 (Homo sapiens) (UniProt Q13639); test: Binding affinity to human recombinant 5HT4 receptor expressed in CHO cells co-expressing pCRE-Luc gene assessed as modulation of serotonin-induced intracellular cAMP level at 0.5 uM after 5 hrs by luciferase based luminescence assay; type: cell-based
Chain of 5-hydroxytryptamine receptor 4 (Homo sapiens) (Q13639 whole entry): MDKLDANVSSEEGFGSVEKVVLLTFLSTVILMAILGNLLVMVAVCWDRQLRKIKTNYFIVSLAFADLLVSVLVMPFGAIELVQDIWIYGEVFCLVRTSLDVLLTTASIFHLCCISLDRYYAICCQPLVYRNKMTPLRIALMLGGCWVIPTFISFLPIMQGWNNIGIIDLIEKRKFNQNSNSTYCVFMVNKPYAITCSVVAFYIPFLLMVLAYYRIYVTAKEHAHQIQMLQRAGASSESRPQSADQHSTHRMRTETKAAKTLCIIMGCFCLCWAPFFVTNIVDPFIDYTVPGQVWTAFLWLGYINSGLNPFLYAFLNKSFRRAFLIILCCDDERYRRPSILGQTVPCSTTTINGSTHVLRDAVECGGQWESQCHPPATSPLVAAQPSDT

[10] = target: Sodium-dependent dopamine transporter (Homo sapiens) (UniProt Q01959); test: Inhibition of DAT at 0.5 uM
Chain of Sodium-dependent dopamine transporter (Homo sapiens) (Q01959 whole entry): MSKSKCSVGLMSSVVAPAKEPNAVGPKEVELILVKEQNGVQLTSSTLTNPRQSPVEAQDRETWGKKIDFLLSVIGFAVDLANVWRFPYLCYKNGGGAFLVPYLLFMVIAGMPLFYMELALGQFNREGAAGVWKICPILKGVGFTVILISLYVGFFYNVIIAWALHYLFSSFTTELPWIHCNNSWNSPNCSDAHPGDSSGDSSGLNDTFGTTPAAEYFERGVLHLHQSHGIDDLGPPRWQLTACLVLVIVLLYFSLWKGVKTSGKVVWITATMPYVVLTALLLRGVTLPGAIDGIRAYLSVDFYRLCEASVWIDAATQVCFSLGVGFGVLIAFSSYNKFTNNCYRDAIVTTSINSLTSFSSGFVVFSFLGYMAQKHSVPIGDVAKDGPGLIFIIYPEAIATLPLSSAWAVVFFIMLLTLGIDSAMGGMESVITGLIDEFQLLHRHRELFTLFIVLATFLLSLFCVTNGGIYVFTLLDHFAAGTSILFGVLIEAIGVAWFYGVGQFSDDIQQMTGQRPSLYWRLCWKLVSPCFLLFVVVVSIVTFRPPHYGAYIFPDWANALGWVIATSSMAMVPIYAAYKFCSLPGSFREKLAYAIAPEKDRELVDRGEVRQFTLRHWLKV

[11] = target: T2, 5-hydroxytryptamine receptor 2C (Homo sapiens) (UniProt P28335); test: Inhibition of 5HT2C receptor at 0.5 uM
T2 sequence (whole entry): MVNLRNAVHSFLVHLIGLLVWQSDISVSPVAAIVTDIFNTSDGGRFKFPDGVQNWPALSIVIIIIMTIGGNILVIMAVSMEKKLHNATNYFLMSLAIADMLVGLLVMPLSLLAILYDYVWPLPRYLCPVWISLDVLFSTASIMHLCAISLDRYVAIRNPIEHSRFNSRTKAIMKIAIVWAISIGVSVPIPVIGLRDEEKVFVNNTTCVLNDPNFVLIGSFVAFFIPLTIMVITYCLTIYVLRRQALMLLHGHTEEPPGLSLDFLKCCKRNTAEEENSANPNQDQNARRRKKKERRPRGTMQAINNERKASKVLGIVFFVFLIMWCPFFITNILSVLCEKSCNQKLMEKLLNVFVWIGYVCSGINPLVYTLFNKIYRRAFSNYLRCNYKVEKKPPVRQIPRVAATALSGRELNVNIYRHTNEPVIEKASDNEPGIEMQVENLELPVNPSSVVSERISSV

[12] = target: T3, Muscarinic acetylcholine receptor M1 (Homo sapiens) (UniProt P11229); test: Binding affinity to human muscarinic M1 receptor expressed in CHO cells co-expressing pCRE-Luc gene assessed as modulation of acetylcholine-induced intracellular cAMP level at 0.5 uM after 5 hrs by luciferase based luminescence assay; type: cell-based
T3 sequence (whole entry): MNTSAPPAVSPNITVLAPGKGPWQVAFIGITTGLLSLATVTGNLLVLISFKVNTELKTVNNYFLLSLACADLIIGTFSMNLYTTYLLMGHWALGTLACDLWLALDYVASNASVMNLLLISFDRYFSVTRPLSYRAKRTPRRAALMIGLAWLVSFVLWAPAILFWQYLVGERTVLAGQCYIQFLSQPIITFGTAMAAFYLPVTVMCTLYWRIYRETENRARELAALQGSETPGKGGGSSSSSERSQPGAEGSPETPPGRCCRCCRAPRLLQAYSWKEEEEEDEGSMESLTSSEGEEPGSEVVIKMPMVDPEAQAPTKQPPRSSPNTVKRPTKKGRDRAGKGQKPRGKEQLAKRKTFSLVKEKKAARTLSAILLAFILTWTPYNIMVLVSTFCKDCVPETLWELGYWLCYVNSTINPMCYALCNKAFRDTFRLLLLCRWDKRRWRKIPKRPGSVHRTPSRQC

[13] = Metabolic stability in human liver microsomes assessed as drug metabolized level after 30 mins; type: ADME, Microsome; details: read-out: Activity
[14] = Metabolic stability in rat liver microsomes assessed as drug metabolized level after 30 mins; type: ADME, Microsome; details: read-out: Activity

SMILES: CCN1CC(Cl)=C(c2cn(S(=O)(=O)c3ccc(OC)cc3)c3ccc(OC)cc23)C1
Kb [1]: 14.5 nM

SMILES: COc1ccc2c(c1)c(CCN(C)C)cn2S(=O)(=O)c1ccccc1
Kb [1]: 5.8 nM

SMILES: CC(C)Oc1ccc2c(c1)c(C1=C(Cl)CN(C)C1)cn2S(=O)(=O)c1ccc(F)cc1
Kb [1]: 7.27 nM

SMILES: CN1CC(Cl)=C(c2cn(S(=O)(=O)c3ccc(Br)cc3)c3ccccc23)C1
inhibition [2]: < 50%
inhibition [3]: < 50%
inhibition [4]: < 50%
inhibition [5]: < 50%
inhibition [6]: < 50%
inhibition [7]: < 50%
inhibition [8]: < 50%
inhibition [9]: < 50%
inhibition [10]: < 50%
inhibition [11]: < 50%
inhibition [12]: < 50%
Kb [1]: 0.35 nM

SMILES: CCN1CCC(c2cn(S(=O)(=O)c3ccccc3Br)c3ccccc23)C1 (racemic)
Kb [1]: 0.1 nM

SMILES: CN1CCC(c2cn(S(=O)(=O)c3ccc(F)cc3)c3ccccc23)C1 (racemic)
Kb [1]: 1 nM

SMILES: CCN1CC(Cl)=C(c2cn(S(=O)(=O)c3ccc(Br)cc3)c3ccccc23)C1
Kb [1]: 3.9 nM

SMILES: CCN1CC(Cl)=C(c2cn(S(=O)(=O)c3ccc(F)cc3)c3ccccc23)C1
Kb [1]: 5.8 nM

SMILES: CCN1CC(Cl)=C(c2cn(S(=O)(=O)c3ccc(F)cc3)c3ccc(OC)cc23)C1
Kb [1]: 8.7 nM

SMILES: CCN1CC(Cl)=C(c2cn(S(=O)(=O)c3cccc(Cl)c3)c3ccc(F)cc23)C1
Kb [1]: 6.15 nM

SMILES: CCOc1ccc2c(c1)c(C1=C(Cl)CN(C)C1)cn2S(=O)(=O)c1ccc(F)cc1
Kb [1]: 6.16 nM

SMILES: CCN1CC(Cl)=C(c2cn(S(=O)(=O)c3cccc(Cl)c3)c3ccccc23)C1
Kb [1]: 12.5 nM

SMILES: CN1CCC(c2cn(S(=O)(=O)c3ccccc3)c3ccccc23)C1 (racemic)
Kb [1]: 1.52 nM

SMILES: CCN1CC(Cl)=C(c2cn(S(=O)(=O)c3ccc(Br)cc3)c3ccc(OC)cc23)C1
Kb [1]: 4.75 nM

SMILES: CN1CC(Cl)=C(c2cn(S(=O)(=O)c3ccc(F)cc3)c3ccccc23)C1
inhibition [2]: < 50%
inhibition [3]: < 50%
inhibition [4]: < 50%
inhibition [5]: < 50%
inhibition [6]: < 50%
inhibition [7]: < 50%
inhibition [8]: < 50%
inhibition [9]: < 50%
inhibition [10]: < 50%
inhibition [11]: < 50%
inhibition [12]: < 50%
Kb [1]: 0.6 nM

SMILES: COc1ccc2c(c1)c(C1CCN(C)C1)cn2S(=O)(=O)c1ccc(C(C)C)cc1 (racemic)
Kb [1]: 0.1 nM

SMILES: CCN1CCC(c2cn(S(=O)(=O)c3ccccc3Br)c3ccc(OC)cc23)C1 (racemic)
Kb [1]: 1.3 nM

SMILES: COc1ccc2c(c1)c(C1CCN(C)C1)cn2S(=O)(=O)c1ccccc1 (racemic)
Kb [1]: 0.89 nM

SMILES: CN1CCC(c2cn(S(=O)(=O)c3ccccc3Br)c3ccccc23)C1 (racemic)
Kb [1]: 0.13 nM

SMILES: CCOc1ccc2c(c1)c(C1CCN(C)C1)cn2S(=O)(=O)c1ccccc1Br (racemic)
Kb [1]: 0.1 nM

SMILES: CCN1CC(Cl)=C(c2cn(S(=O)(=O)c3cccc(Cl)c3)c3ccc(OC)cc23)C1
Kb [1]: 2.4 nM

SMILES: CC(C)Oc1ccc2c(c1)c(C1CCN(C)C1)cn2S(=O)(=O)c1ccccc1Br (racemic)
Kb [1]: 4.15 nM

Second part, the molecule after the results:

Kb [1]: 10 nM
SMILES: COc1ccc(S(=O)(=O)n2cc(C3=C(Cl)CN(C)C3)c3ccccc32)cc1

Kb [1]: 0.13 nM
SMILES: COc1ccc2c(c1)c(C1CCN(C)C1)cn2S(=O)(=O)c1ccccc1Br (racemic)

Kb [1]: 0.63 nM
SMILES: COc1ccc2c(c1)c(C1=C(Cl)CN(C)C1)cn2S(=O)(=O)c1ccc(F)cc1

inhibition [2]: < 50%
inhibition [3]: < 50%
inhibition [4]: < 50%
inhibition [5]: < 50%
inhibition [6]: < 50%
inhibition [7]: < 50%
inhibition [8]: < 50%
inhibition [9]: < 50%
inhibition [10]: < 50%
inhibition [11]: < 50%
inhibition [12]: < 50%
Kb [1]: 0.3 nM
SMILES: COc1ccc2c(c1)c(C1=C(Cl)CN(C)C1)cn2S(=O)(=O)c1ccccc1Br

Kb [1]: 0.1 nM
SMILES: CN1CC(Cl)=C(c2cn(S(=O)(=O)c3ccccc3)c3ccc(F)cc23)C1

Kb [1]: 0.7 nM
SMILES: CC(C)Oc1ccc2c(c1)c(C1=C(Cl)CN(C)C1)cn2S(=O)(=O)c1ccccc1

Kb [1]: 0.4 nM
SMILES: CCOc1ccc2c(c1)c(C1=C(Cl)CN(C)C1)cn2S(=O)(=O)c1ccccc1Br

Kb [1]: 4.45 nM
SMILES: CCOc1ccc2c(c1)c(C1=C(Cl)CN(C)C1)cn2S(=O)(=O)c1ccc(Br)cc1

inhibition [2]: < 50%
inhibition [3]: < 50%
inhibition [4]: < 50%
inhibition [5]: < 50%
inhibition [6]: < 50%
inhibition [7]: < 50%
inhibition [8]: < 50%
inhibition [9]: < 50%
inhibition [10]: < 50%
inhibition [11]: < 50%
inhibition [12]: < 50%
Kb [1]: 1.65 nM
SMILES: COc1ccc(S(=O)(=O)n2cc(C3=C(Cl)CN(C)C3)c3cc(OC)ccc32)cc1

inhibition [2]: < 50%
metabolised at 0.5 h [13]: 97%
inhibition [3]: < 50%
inhibition [4]: < 50%
inhibition [5]: < 50%
inhibition [6]: < 50%
metabolised at 0.5 h [14]: 96%
inhibition [7]: < 50%
inhibition [8]: < 50%
inhibition [9]: < 50%
inhibition [10]: < 50%
inhibition [11]: < 50%
inhibition [12]: < 50%
Kb [1]: 0.1 nM
SMILES: COc1ccc2c(c1)c(C1=C(Cl)CN(C)C1)cn2S(=O)(=O)c1ccccc1

Kb [1]: 0.25 nM
SMILES: COc1ccc2c(c1)c(C1=C(Cl)CN(C)C1)cn2S(=O)(=O)c1ccc(C(C)C)cc1

Kb [1]: 1.1 nM
SMILES: CCN1CC(Cl)=C(c2cn(S(=O)(=O)c3ccccc3Br)c3ccccc23)C1

Kb [1]: 0.84 nM
SMILES: COc1ccc2c(c1)c(C1=C(Cl)CN(C)C1)cn2S(=O)(=O)c1cccc(Cl)c1

Kb [1]: 0.45 nM
SMILES: CCOc1ccc2c(c1)c(C1=C(Cl)CN(CC)C1)cn2S(=O)(=O)c1ccccc1Br

Kb [1]: 1.78 nM
SMILES: COc1ccc2c(c1)c(C1=C(Cl)CN(C)C1)cn2S(=O)(=O)c1ccc(Br)cc1

Kb [1]: 0.25 nM
SMILES: CN1CC(Cl)=C(c2cn(S(=O)(=O)c3ccccc3Br)c3ccc(F)cc23)C1

Kb [1]: 6.15 nM
SMILES: CCN1CC(Cl)=C(c2cn(S(=O)(=O)c3ccccc3Br)c3ccc(OC)cc23)C1

Kb [1]: 18.4 nM
SMILES: COc1ccc2c(c1)c(C1=C(Cl)CN(C)C1)cn2S(=O)(=O)c1cc(Cl)c(Cl)cc1Cl

Kb [1]: 0.7 nM
SMILES: CCN1CC(Cl)=C(c2cn(S(=O)(=O)c3ccccc3)c3ccc(OC)cc23)C1

Kb [1]: 1 nM
SMILES: CCOc1ccc2c(c1)c(C1=C(Cl)CN(C)C1)cn2S(=O)(=O)c1ccccc1
